Data as given in patent US8637513B2, “Heterocycle phenyl amide T-type calcium channel antagonists” (Merck Sharp & Dohme Corp., priority 2007, dated 2014).

Target: T1, T-type channel alpha1I (CaV 3.3) (Homo sapiens, UniProt Q9P0X4)
T1 construct: expressed in transfected cells; host or cells: HEK 293 cells, tetracycline-inducible expression
Test: FLIPR Ca2+ Flux Assay
Format: cell-based
Conditions: alpha1I subtype; read-out: FLIPR alpha1I IP

T1 sequence (Q9P0X4 whole entry): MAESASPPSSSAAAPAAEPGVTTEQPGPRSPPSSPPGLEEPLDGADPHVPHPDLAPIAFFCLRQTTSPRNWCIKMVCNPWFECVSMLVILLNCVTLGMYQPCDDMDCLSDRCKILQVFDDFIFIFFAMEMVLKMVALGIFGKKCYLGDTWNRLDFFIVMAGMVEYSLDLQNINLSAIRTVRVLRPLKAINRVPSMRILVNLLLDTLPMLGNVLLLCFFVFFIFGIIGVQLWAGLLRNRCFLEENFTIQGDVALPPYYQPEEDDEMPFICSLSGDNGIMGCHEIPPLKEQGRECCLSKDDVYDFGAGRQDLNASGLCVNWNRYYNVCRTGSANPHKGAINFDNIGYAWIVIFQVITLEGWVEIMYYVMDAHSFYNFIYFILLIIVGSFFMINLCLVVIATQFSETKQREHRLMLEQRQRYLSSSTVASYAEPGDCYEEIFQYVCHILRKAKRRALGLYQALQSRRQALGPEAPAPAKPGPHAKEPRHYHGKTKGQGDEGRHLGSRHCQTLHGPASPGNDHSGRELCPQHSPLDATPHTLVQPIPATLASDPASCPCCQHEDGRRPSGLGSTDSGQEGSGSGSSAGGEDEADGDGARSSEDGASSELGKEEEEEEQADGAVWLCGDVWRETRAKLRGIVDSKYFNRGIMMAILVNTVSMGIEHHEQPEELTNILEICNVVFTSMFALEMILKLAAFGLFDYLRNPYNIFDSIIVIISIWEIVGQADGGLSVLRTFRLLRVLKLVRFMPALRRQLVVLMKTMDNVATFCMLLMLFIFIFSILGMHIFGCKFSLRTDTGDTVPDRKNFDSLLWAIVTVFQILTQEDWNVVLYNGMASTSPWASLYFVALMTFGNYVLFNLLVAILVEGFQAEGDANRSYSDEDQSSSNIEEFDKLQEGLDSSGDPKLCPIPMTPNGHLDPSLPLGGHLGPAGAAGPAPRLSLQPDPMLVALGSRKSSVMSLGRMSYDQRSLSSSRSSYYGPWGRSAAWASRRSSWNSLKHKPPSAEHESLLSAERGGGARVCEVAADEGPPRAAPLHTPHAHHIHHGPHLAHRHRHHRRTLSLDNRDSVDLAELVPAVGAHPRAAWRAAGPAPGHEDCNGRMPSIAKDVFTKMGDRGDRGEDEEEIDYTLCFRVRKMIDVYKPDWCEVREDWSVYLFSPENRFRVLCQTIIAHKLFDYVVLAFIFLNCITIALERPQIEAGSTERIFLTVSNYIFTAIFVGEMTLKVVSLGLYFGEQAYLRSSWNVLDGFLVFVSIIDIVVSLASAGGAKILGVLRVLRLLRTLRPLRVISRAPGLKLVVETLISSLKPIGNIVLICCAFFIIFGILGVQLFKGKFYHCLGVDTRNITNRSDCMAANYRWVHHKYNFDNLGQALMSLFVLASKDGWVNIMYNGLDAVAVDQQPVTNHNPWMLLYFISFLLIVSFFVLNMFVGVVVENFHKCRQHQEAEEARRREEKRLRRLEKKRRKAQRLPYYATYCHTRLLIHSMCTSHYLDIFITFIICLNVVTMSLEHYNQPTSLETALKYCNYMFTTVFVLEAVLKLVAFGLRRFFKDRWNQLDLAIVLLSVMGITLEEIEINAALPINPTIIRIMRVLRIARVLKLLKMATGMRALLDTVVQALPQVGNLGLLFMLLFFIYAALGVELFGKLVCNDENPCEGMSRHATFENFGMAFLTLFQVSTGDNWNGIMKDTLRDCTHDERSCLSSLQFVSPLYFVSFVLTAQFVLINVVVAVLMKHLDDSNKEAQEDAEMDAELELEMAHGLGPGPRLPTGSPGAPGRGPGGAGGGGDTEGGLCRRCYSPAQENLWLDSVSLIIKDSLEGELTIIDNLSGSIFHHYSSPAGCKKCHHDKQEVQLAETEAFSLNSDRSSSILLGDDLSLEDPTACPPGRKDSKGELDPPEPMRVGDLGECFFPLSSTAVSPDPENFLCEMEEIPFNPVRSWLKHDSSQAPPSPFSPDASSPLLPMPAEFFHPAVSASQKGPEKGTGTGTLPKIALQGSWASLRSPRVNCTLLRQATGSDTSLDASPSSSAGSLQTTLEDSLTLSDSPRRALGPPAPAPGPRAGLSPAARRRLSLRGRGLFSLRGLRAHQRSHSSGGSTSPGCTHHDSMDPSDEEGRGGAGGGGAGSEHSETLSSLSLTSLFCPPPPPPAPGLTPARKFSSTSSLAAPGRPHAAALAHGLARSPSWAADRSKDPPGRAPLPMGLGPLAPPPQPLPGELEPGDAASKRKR

Row | Compound | IC50 [nM]
1 | C[C@@H](NC(=O)Cc1ccc(-c2cccc3cncnc23)cc1)c1ccc(OCC(F)(F)F)cn1 [Example 1, 2-(4-Quinazolin-8-ylphenyl)-N-{(1R)-1-[5-(2,2,2-trifluoroethoxy)pyridin-2-yl]ethyl}acetamide] | 19
2 | Cc1nccnc1-c1ccc(CC(=O)N[C@H](C)c2ccc(OCC(F)(F)F)cn2)cc1 [Example 2, 2-[4-(3-methylpyrazin-2-yl)phenyl]-N-{(1R)-1-[5-(2,2,2-trifluoroethoxy)pyridin-2-yl]ethyl}acetamide] | 24
3 | C[C@@H](NC(=O)Cc1ccc(-c2cc3ccccc3n2C)cc1)c1ccc(OCC(F)(F)F)cn1 [Example 3, 2-[4-(1-Methyl-1H-indol-2-yl)phenyl]-N-{(1R)-1-[5-(2,2,2-trifluoroethoxy)pyridin-2-yl]ethyl}acetamide] | 36
4 | C[C@@H](NC(=O)Cc1ccc(-c2cnn3ncccc23)cc1)c1ccc(OCC(F)(F)F)cn1 [Example 4, 2-(4-Pyrazolo[1,5-b]pyridazin-3-ylphenyl)-N-{(1R)-1-[5-(2,2,2-trifluoroethoxy)pyridin-2-yl]ethyl}acetamide] | 5
5 | C[C@@H](NC(=O)Cc1ccc(-c2cnccn2)cc1)c1ccc(OCC(F)(F)F)cn1 [Example 5, 2-(4-Pyrazin-2-ylphenyl)-N-{(1R)-1-[5-(2,2,2-trifluoroethoxy)pyridin-2-yl]ethyl}acetamide] | 30
6 | C[C@@H](NC(=O)Cc1ccc(-c2nccnc2C2CC2)cc1)c1ccc(OCC(F)(F)F)cn1 [Example 6, 2-[4-(3-Cyclopropylpyrazin-2-yl)phenyl]-N-{(1R)-1-[5-(2,2,2-trifluoroethoxy)pyridin-2-yl]ethyl}acetamide] | 47
7 | CC1=NOC(C)(c2ccc(CC(=O)N[C@H](C)c3ccc(OCC(F)(F)F)cn3)cc2)C1 (stereo partly drawn) [Example 7, 2-[4-(3,5-Dimethyl-4,5-dihydro-isoxazol-5-yl)phenyl]-N-{(1R)-1-[5-(2,2,2-trifluoroethoxy)pyridin-2-yl]ethyl}acetamide] | 41
8 | C[C@@H](NC(=O)Cc1ccc(OC2CCOC2)cc1)c1ccc(OCC(F)(F)F)cn1 (stereo partly shown) [Example 8] | 91
9 | C[C@@H](NC(=O)Cc1ccc(Oc2nccs2)cc1)c1ccc(OCC(F)(F)F)cn1 [Example 9] | 46
10 | C[C@@H](NC(=O)Cc1ccc(-n2nc(C3CC3)c3ccccc32)cc1)c1ccc(OCC(F)(F)F)cn1 [Example 10] | 73
